Data: patent publication EP4567031A1, “HPK1 INHIBITOR, PREPARATION METHOD THEREFOR, AND USE THEREOF” (Beijing Earthwise Technology Co., Ltd., priority 2022, dated 2024)

Tests used:
[1] = system: Phospho-SLP-76 (Ser376); experiment: Phospho-SLP-76 (Ser376) HTRF assay in Jurkat E6-1 cells; format: cell-based; settings: Homo sapiens, compound 4 hours, then anti-CD3 antibody 20 minutes, read-out: pSLP76, IC50
Description: A compound was dissolved in DMSO to 10 mM, and then diluted three-fold with DMSO to 10 dosages in a 96-well plate. Then, 3 µL of the diluted compound sample was transferred to a 96-well plate with 97 µL of cell culture medium, and the plate was shaken for 5 minutes. According to the experimental design diagram, 7.5 µL of the diluted compound sample was transferred to a cell plate. Final concentrations of the compound in this assay were 10000.00, 3333.33, 1111.11, 370.37, 123.46, 41.15, 13.72, 4.57, 1.52 and 0.51 nM.
In this assay, the density of Jurkat E6-1 cells was maintained between 3*10^5 to 3*10^6 cells/mL. The cell culture was replaced with fresh culture medium every 2 to 3 days (depending on the cell density).
30 µL of Jurkat E6-1 (300,000 cells) was added to a 96-well plate and incubated in a 37 °C incubator for 1 hour. Then, according to the experimental design diagram, compounds (6×, 7.5 µL) were added to treat the cells for 4 hours, respectively. After 4 hours, purified anti-human anti-CD3 antibodies (6×, 7.5 µL) were added to treat the cells for 20 minutes. After 20 minutes, 15 µL of cell lysis buffer (4×) was added, and the cells were lysed at 25 °C with shaking (250 rpm) for 1 hour. Then, according to the experimental design diagram, 16 µL of cell lysate was transferred to a 384-well plate using a pipette. After the transfer, 4 µL of antibody detection mixture was added. After being placed at room temperature overnight, the plate was read by EnVision multi-function microplate reader to read the FRET signal (the ratio of HTRF 665/615 was calculated from the readings at 665 nm and 615 nm).
The ratio of the signal at 665 nm to the signal at 615 nm was converted to the percentage of inhibition. Inhibition % = (maximum value - sample value) / (maximum value - minimum value)×100. The minimum value refers to the signal value of a well without anti-CD3 antibody stimulation during the treatment of cells, and the maximum value refers to the signal value of a well with anti-CD3 antibody stimulation but without the compound during the treatment of cells. IC50 values were calculated by XLFit (version 5.3.1.3) in excel. Equation: Y = Bottom + (Top-Bottom) / (1 + (IC50/X) ^ HillSlope). Table 4. Results of cellular activity of the compounds

[2] = biological target: T1, HPK1 (Homo sapiens, UniProt Q92918); experiment: HPK1 ADP-Glo kinase assay; format: biochemical; settings: 40 µM ATP; 5 nM HPK1; MBP protein substrate
Description: 1×kinase buffer (40 mM Tris-HCl (pH 7.5), 20 mM MgCl2, 0.1 mg/ml BSA, 0.05 mM DTT), 2 µM MBP protein and 40 µM ATP, […] were included in the reaction mixture. The reaction was initiated by adding 5 nM HPK1. After 60 minutes of reaction, the assay was terminated by adding 5 µL of ADP-Glo™ reagent. After 60 minutes, 10 µL of kinase assay reagent was added. After being incubated at room temperature for 60 minutes, the assay plate was read by EnVision multi-function microplate reader.
(§1) The luminescent signal value was converted to the percentage of inhibition. Inhibition % = (maximum value - sample value) / (maximum value - minimum value)×100. The minimum value refers to the value measured in a well without enzyme but with DMSO and substrate, and the maximum value refers to the value measured in a well with DMSO, enzyme and substrate. IC50 values were calculated by XLFit (version 5.3.1.3) in Excel. Equation: Y = bottom + (top - bottom) / (1 + (IC50/X) ^ HillSlope).

[3] = system: human Pan T cells; experiment: Human Pan T cell IL-2 ELISA; format: cell-based; settings: Homo sapiens, T-cell, 48 h, Anti-CD3 and Anti-CD28, supernatant IL-2 ELISA, read-out: IL-2 release, EC50
Procedure, shortened: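 Human Pan T cells (1×10^6 cells/ml) stimulated with plate-bound anti-CD3 plus anti-CD28 and treated 48 h with compound at 9 final concentrations, 39.063–10000 nM. Supernatant IL-2 by ELISA, expressed as fold over DMSO wells; EC50 from four-parameter logistic fit.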

[4] = biological target: T1, HPK1; experiment: HPK1 HTRF kinase assay; format: biochemical; settings: 1000 µM ATP; 50 nM HPK1; STK1 substrate; read-out: HPK1, IC50
Description: The reaction was initiated by adding 50 nM HPK1. After 120 minutes of reaction, the assay was terminated by adding 10 µL of Detection Mix.
as §1, with “The ratio of the” for “The luminescent”, “signal at 665 nm to the signal at 615 nm” for “signal value”, “= Bottom” for “= bottom”, “+ (Top” for “+ (top”, “- Bottom)” for “- bottom)”

T1 sequence (Q92918 whole entry, species assumed): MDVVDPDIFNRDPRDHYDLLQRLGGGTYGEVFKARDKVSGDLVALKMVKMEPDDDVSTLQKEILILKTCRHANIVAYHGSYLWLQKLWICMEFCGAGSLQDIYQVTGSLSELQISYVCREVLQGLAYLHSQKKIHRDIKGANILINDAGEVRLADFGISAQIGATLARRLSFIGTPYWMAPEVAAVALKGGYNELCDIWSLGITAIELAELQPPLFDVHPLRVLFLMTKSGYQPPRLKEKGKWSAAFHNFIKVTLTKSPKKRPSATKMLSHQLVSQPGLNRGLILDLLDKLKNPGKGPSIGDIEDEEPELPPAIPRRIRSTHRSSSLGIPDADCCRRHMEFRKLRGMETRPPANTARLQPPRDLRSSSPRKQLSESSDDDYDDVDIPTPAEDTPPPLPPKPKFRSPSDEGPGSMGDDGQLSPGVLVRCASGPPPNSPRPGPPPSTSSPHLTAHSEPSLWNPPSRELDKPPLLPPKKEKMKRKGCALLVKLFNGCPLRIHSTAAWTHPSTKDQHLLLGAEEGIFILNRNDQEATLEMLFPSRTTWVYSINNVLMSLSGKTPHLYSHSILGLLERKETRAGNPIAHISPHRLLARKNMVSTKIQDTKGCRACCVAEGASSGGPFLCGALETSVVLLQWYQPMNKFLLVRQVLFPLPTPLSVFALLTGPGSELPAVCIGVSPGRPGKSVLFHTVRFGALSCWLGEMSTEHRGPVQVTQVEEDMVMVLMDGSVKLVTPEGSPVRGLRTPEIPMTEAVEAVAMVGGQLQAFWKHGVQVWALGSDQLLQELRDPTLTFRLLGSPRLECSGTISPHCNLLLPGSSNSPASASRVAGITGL

| IC50 [1] [nM] | IC50 [2] [nM] | EC50 [3] [nM] | IC50 [4] [nM] | Compound |
| --- | --- | --- | --- | --- |
| 64 | 1.7 |  |  | COc1cccn2c(-c3cc4c(c5c(=O)[nH]ccc35)Nc3ccc(N5CCOC(C(C)(C)O)C5)cc3C4(C)C)cnc12 (stereo not shown) [Example 2] |
| 57.5 | 0.3 | 38 |  | COc1cccn2c(-c3cc4c(c5c(=O)[nH]ccc35)Nc3ccc(N5CCOCC5)cc3C4(C)C)cnc12 [Example 3] |
| 38.1 |  | 4.61 |  | CC1(C)c2cc(N3CCOCC3)ccc2Nc2c1cc(-c1cnn3cccnc13)c1cc[nH]c(=O)c21 [Example 4] |
|  | 3.44 | 10.8 |  | Cc1ccn2c(-c3cc4c(c5c(=O)[nH]ccc35)Nc3ccc(N5CCOCC5)cc3C4(C)C)cnc2c1F [Example 5] |
| 164 |  | 13 |  | Cc1ccn2c(-c3cc4c(c5c(=O)[nH]ccc35)Nc3ccc(N5CCOC(C(C)(C)O)C5)cc3C4(C)C)cnc2c1F (stereo not shown) [Example 6] |
| 487 |  |  |  | Cc1ccc2c(-c3cc4c(c5c(=O)[nH]ccc35)Nc3ccc(N5CCOC(C(C)(C)O)C5)cc3C4(C)C)cnn2c1 (stereo not shown) [Example 7] |
| 103 |  | 5.5 |  | COc1cccc2c(-c3cc4c(c5c(=O)[nH]ccc35)Nc3ccc(N5CCOCC5)cc3C4(C)C)cnn12 [Example 8] |
| 73.3 |  | 13.8 | 7.38 | Cc1ccn2c(-c3cc4c(c5c3CNC5=O)Nc3ccc(N5CCOCC5)cc3C4(C)C)cnc2c1F [Example 11] |
| 25.9 |  | 6.67 | 6.99 | CC1(C)c2cc(N3CCOCC3)ccc2Nc2c1cc(-c1cnc3cccnn13)c1c2C(=O)NC1 [Example 12] |
| 197 |  | 49.1 | 30.3 | COc1cccn2c(-c3cc4c(c5c3CNC5=O)Nc3cnc(N5CCOCC5)cc3C4(C)C)cnc12 [Example 14] |
| 72.2 |  | 3.95 |  | COc1cccc2c(-c3nc4c(c5c3CCNC5=O)Nc3ccc(N5CCOCC5)cc3C4(C)C)cnn12 [Example 15] |
| 31.6 |  | 6.81 | 2.85 | CC1(C)c2cc(N3CCOCC3)ccc2Nc2c1cc(-c1cnn3cccnc13)c1c2C(=O)NC1 [Example 16] |
| 56.9 |  | 3.72 | 6.31 | CC1(C)c2cc(N3CCOCC3)ccc2Nc2c1cc(-c1cnn3c(C#N)cccc13)c1c2C(=O)NC1 [Example 17] |
| 66 |  | 11.8 | 11.7 | COc1cccc2c(-c3cc4c(c5c3CNC5=O)Nc3ccc(N5CCOCC5)cc3C4(C)C)cnn12 [Example 18] |
| 83.6 |  | 11.3 | 5.76 | COc1cccn2c(-c3cc4c(c5c3CNC5=O)Nc3ccc(N5CCOCC5)nc3C4(C)C)cnc12 [Example 20] |
| 37 |  | 8.32 |  | COc1cccc2c(-c3cc4c(c5c3CNC5=O)Nc3ncc(N5CCOCC5)cc3C4(C)C)cnn12 [Example 21] |
| 58.8 |  | 3.7 | 24.8 | COc1ccnn2c(-c3cc4c(c5c3CNC5=O)Nc3ccc(N5CCOCC5)cc3C4(C)C)cnc12 [Example 31] |

| IC50 [1] [nM] | IC50 [2] [nM] | EC50 [3] [nM] | IC50 [4] [nM] | Compound |
| --- | --- | --- | --- | --- |
| 13.5 |  | 6.09 |  | Cn1ccn2c(-c3cc4c(c5c3CNC5=O)Nc3ccc(N5CCOCC5)cc3C4(C)C)cnc2c1=O [Example 41] |
|  |  | 28.9 | 7.87 | CC1(C)c2cc(N3CCOCC3)c(C(F)F)cc2Nc2c1cc(-c1cnn3cccnc13)c1c2C(=O)NC1 [Example 73] |
|  |  | 100 | 49.7 | CC1(C)c2cc(N3CCOCC3)ccc2Nc2c1cc(-c1cncc(OCC3COC3)c1)c1c2C(=O)NC1 [Example 74] |
|  |  | 1.41 | 4.55 | COc1cccn2c(-c3cc4c(c5c3CNC5=O)Nc3ccc(N5CCOCC5)cc3C4(C)C)nnc12 [Example 75] |
|  |  | 50.4 | 8.73 | COc1cncc2c(-c3cc4c(c5c3CNC5=O)Nc3ccc(N5CCOCC5)cc3C4(C)C)cnn12 [Example 76] |
|  |  | 13.6 | 4.56 | CC1(C)c2cc(N3CCOCC3)ccc2Nc2c1cc(-c1cnn3c1OCCC3)c1c2C(=O)NC1 [Example 77] |
|  |  | 75.5 | 35 | CN1CCn2c(-c3cc4c(c5c3CNC5=O)Nc3ccc(N5CCOCC5)cc3C4(C)C)cnc2C1 [Example 78] |
|  |  | 19.5 | 6.36 | CC1(C)c2cc(N3CCOCC3)ccc2Nc2c1cc(-c1cnc3n1CCOC3)c1c2C(=O)NC1 [Example 79] |
|  |  | 86.6 | 9.18 | CC1(C)c2cc(N3CCOCC3)ccc2Nc2c1cc(-n1cnc3c1CCCC3)c1c2C(=O)NC1 [Example 80] |
|  |  | 35.8 | 6.31 | Cc1cc(-c2cc3c(c4c2CNC4=O)Nc2ccc(N4CCOCC4)cc2C3(C)C)cc(=O)[nH]1 [Example 81] |
|  |  | 27 | 6.62 | CNc1cncc(-c2cc3c(c4c2CNC4=O)Nc2ccc(N4CCOCC4)cc2C3(C)C)c1 [Example 82] |
|  |  | 17.4 | 5.8 | CC1(C)c2cc(C3CCNCC3)ccc2Nc2c1cc(-c1cnn3cccnc13)c1c2C(=O)NC1 [Example 83] |
|  |  | 65.9 | 8.63 | CN1CCn2c(-c3cc4c(c5c3CNC5=O)Nc3ccc(N5CCOCC5)cc3C4(C)C)cnc2C1=O [Example 84] |
|  |  | 11.5 | 7.95 | CC1(C)c2cc(N3CCOCC3)ccc2Nc2c1cc(-c1cnc3n1CCC3)c1c2C(=O)NC1 [Example 86] |
|  |  | 8.97 | 7.88 | Cc1ncc(-c2cc3c(c4c2CNC4=O)Nc2ccc(N4CCOCC4)cc2C3(C)C)n1C [Example 87] |
|  |  | 68.2 | 7.64 | CC1(C)c2cc(NC(=O)COCCO)ccc2Nc2c1cc(-c1cnn3cccnc13)c1c2C(=O)NC1 [Example 92] |

| Compound | IC50 [1] [nM] | IC50 [2] [nM] | EC50 [3] [nM] | IC50 [4] [nM] |
| --- | --- | --- | --- | --- |
| CC1(C)c2cc(N3CCOCC3)ccc2Nc2c1cc(-c1cnc3c(Cl)cccn13)c1cc[nH]c(=O)c21 [Example 1] | 121 | 0.1 |  |  |
| Cc1ccn2c(-c3cc4c(c5c3CNC5=O)Nc3ccc(N5CCOC(C(C)(C)O)C5)cc3C4(C)C)cnc2c1F (stereo not shown) [Example 9] | 57.8 |  | 3.09 | 20.4 |
| COc1cccn2c(-c3cc4c(c5c3CNC5=O)Nc3ccc(N5CCOCC5)cc3C4(C)C)cnc12 [Example 10] | 42.7 |  |  | 8.39 |
| COc1cccn2c(-c3cc4c(c5c3CCNC5=O)Nc3ccc(N5CCOCC5)cc3C4(C)C)cnc12 [Example 13] | 24.4 |  |  |  |
